Where two headings read alike, the source gives them in different places.
Assays:
Friend Leukemia Virus [1] = test: In vivo inhibition of Friend Leukemia Virus splenomegaly, intravenous 1-2 hours post infection (Example 10); parameters: species or system mice; conditions: Mus musculus, read-out: EC50 for FV-induced splenomegaly
Experimental: (3) In vivo inhibition of Friend Leukemia Virus Splenomegaly performed as described in Example 1 above except that the compounds were administered intravenously 1-2 hours post infection.
(§1) The results presented above in Table IX are presented as EC50 concentrations. These are the effective concentrations which inhibit 50% of the viruses in micromolar concentrations.

retroviruses (virions) = test: Direct inactivation of retroviruses (virions) in vitro (Example 10); format: biochemical, Radiation Leukemia Virus; conditions: Table IX
Experimental: Supernatants (10 ml/tube) from B10.T(6R) cells (Meruelo et al. J. Exp. Med. 147: 470-487, 1978) chronically infected with Radiation Leukemia Virus (RadLV) were obtained by centrifugation of cells in culture at 4° C., 3500 rpm for 15 minutes. The top 2/3 of the supernatant were removed and aliquots were incubated for 30 minutes on ice with the indicated amounts of hypericin or protohypericin. […] Thereafter, supernatants were centrifuged at 100,000×g using a TI70 rotor (Beckman Instruments) for 1 hour at 4° C. The pellet was […] and analyzed for reverse transcriptase activity as follows.
The reverse transcriptase assay was performed in a volume of 100 microliters containing the following components:
(1) Direct inactivation of retroviruses in vitro, performed as in Example 3 above;
as §1

Friend Leukemia Virus [2] = test: Inhibition of Friend Leukemia Virus-induced splenomegaly in mice, compounds intraperitoneally 24 hours after virus (Example 1(a)); format: in vivo, BALB/c mice; parameters: Actual Spleen Weight / Average Spleen Weight: unit not given here; conditions: Table III; for inhibition in vivo at 0.1 mg / inhibition in vivo at 0.05 mg / inhibition in vivo at 0.2 mg: Mus musculus, ip; for Pooled Average % Inhibition: pooled over 50, 100, 200, 2 × 100 micrograms
Description: The effects of compositions according to the present invention on infection of mammals with Friend Leukemia Virus (FV) were examined.
Friend Leukemia Virus is an aggressive retrovirus which induces an acute erythroleukemia in sensitive strains of mice such as BALB/c and NIH swiss mice as described in Friend, C. J., Exp. Med. 105: 307-324, 1957; Friend, C. et al. Proc. Natl. Acad. Sci. USA 68: 378-383, 1971; Friend, C. et al. Natl. Cancer Inst. Mongr. 22: 508-552, 1966. The malignant transformation is the result of the combined activities of the Spleen Focus Forming Virus (SFFV) and the ecotropic Murine Friend Leukemia Helper Virus (F-MuLV). The acute erythroleukemia is characterized by hepatosplenomegaly (a marked increase in the size of the spleen and liver) and a severe anemia.
Friend Leukemia Virus was prepared by homogenizing the enlarged spleen of a mouse previously infected with FV, 10 days after intravenous virus injection. The spleen was homogenized in phosphate buffered saline in a volume equal to ten times the weight of the isolated spleen.
The effects of compositions according to the present invention on the increase in spleen size (splenomegaly) of BALB/c mice (Jackson Labs, Bar Harbor, ME) was examined. In these experiments, the virus (10^6 focus forming units--FFU) was inoculated intravenously and 100 micrograms of the compounds indicated in Table II were administered to the mice intraperitoneally 24 hours later. Each compound was administered once to two mice. The animals were sacrificed ten days later and their spleens weighed.
The present assay has been developed from similar assays using hypericin or pseudohypericin and employing higher numbers of experimental animals per group (e.g. 4 animals). It was discovered however that the specificity and sensitivity of this assay are such that an experimental group of two animals is of more than adequate predictive value.
As used in Table II (and subsequent Tables of this Example l(a) and (b), "average percent inhibition" is calculated as follows: [formula] wherein "ASWNC" designates "average spleen weight of negative control"; "ASWE" designates "average spleen weight of experimental (treated) subject"; and "ASWPC" designates "average spleen weight of positive control". Average spleen weight is the numerical average of spleen weights of each experimental group (in Table II each such group includes two members).
In these experiments, the virus (10^6 focus forming units--FFU) was inoculated intravenously, and the indicated doses of the antiviral compounds of this invention were administered to the BALB/c mice intraperitoneally 24 hours later. The animals were then sacrificed ten days later and their spleens weighed.
Pseudohypericin was diluted in phosphate buffered saline with 1% ethanol.
An expanded series of experiments was next performed in which various concentrations (i.e. 50, 100, 200 and 2×100, i.e., 100 micrograms administered twice) of a different set of PAC compounds (numbers 16-29 and 30-36 in Table III below) were administered intraperitoneally each according to the same protocol described above. Compounds 16-29 all had 3-5 fused, aromatic rings and no side groups except for oxygen or hydroxyl groups, whereas compounds 30-36 all had 3 fused aromatic rings and side chains selected from the group of oxygen, hydroxyl and methyl.
When 2 doses of the compounds were given, the second dose was administered 24-48 hours after the first injection. The animals were infected and splenomegaly determined as above for the compounds in Table II. In Table III, "pooled average percent inhibition" is calculated by adding the average percent inhibition for each experiment with the same compound and dividing the sum by the number of experiments (i.e. the number 4). […]

EC50 (Friend Leukemia Virus [1]; i.v. 1-2 hours post infection, Table IX) | SMILES | EC50 (retroviruses (virions)) | inhibition in vivo at 0.1 mg (Friend Leukemia Virus [2]; dose 2 × 100 (micrograms) i.p., read-out: Average Perdosage % Inhibition) | inhibition in vivo at 0.05 mg (Friend Leukemia Virus [2]; dose 50 (micrograms) i.p., read-out: Average Perdosage % Inhibition) | inhibition in vivo at 0.1 mg (Friend Leukemia Virus [2]; dose 100 (micrograms) i.p., read-out: Average Perdosage % Inhibition) | inhibition in vivo at 0.2 mg (Friend Leukemia Virus [2]; dose 200 (micrograms) i.p., read-out: Average Perdosage % Inhibition) | Average Spleen Weight (Friend Leukemia Virus [2]; dose 2 × 100 (micrograms) i.p.) | Average Spleen Weight (Friend Leukemia Virus [2]; dose 50 (micrograms) i.p.) | Average Spleen Weight (Friend Leukemia Virus [2]; dose 100 (micrograms) i.p.) | Average Spleen Weight (Friend Leukemia Virus [2]; dose 200 (micrograms) i.p.) | Pooled Average % Inhibition (Friend Leukemia Virus [2]) | EC50 (Friend Leukemia Virus [1]) | inhibition in vivo at 0.1 mg (Friend Leukemia Virus [2]; read-out: Average Perdosage % Inhibition, dose 2 × 100 (micrograms) i.p.) | inhibition in vivo at 0.05 mg (Friend Leukemia Virus [2]; read-out: Average Perdosage % Inhibition, dose 50 (micrograms) i.p.) | inhibition in vivo at 0.1 mg (Friend Leukemia Virus [2]; read-out: Average Perdosage % Inhibition, dose 100 (micrograms) i.p.) | inhibition in vivo at 0.2 mg (Friend Leukemia Virus [2]; read-out: Average Perdosage % Inhibition, dose 200 (micrograms) i.p.)
267 µM | O=C1c2ccccc2Cc2ccccc21 [Compound 30, Anthrone] | > 51 µM | 57% | 31% | 63% | 62% | 0.9878 | 1.4953 | 0.8790 | 0.9092 | 53% |  |  |  |  | 
 | O=C1c2ccccc2C(=O)c2cc(CO)ccc21 [Compound 35, 2-(hydroxymethyl)-anthraquinone] | > 41 µM |  |  |  |  | 0.6575 | 0.8921 | 0.8615 | 0.6086 | 70% | 145 µM | 75% | 62% | 64% | 77%

— US6150414A, “Compositions and methods for treating viral infections” (priority 1992, dated 2000)
